Legend:
[1] = DPPH radical scavenger test (acellular); details: 30 minutes
Text: Study of the radical scavenger activity of the hydroxytyrosol dihydrosinapate of the invention of formula (IIa) and of the prior-art ferulic acid derivative in an acellular in vitro model, using DPPH.
1,1-Diphenyl-2-picrylhydrazyl, owing to its paramagnetic structure, is able to accept an electron or a hydrogen radical in order to become a stable diamagnetic molecule.
The addition of a compound which provides electrons gives rise to decoloring of the 1,1-diphenyl-2-picrylhydrazyl in a manner proportional to the number of electrons accepted by the radical, and this decoloration can be monitored by measuring the absorbance at 530 nm (OD530).
[…] At the end of the incubation, the radical scavenger activity of the compound under test is evaluated by measuring the absorbance of the solution at 530 nm.
The results are presented as % inhibition of the DPPH radical, in Table 3a).
The radical scavenger activity of the test product is calculated as a percentage, according to the following formula:
100−((OD530 in the presence of the compound under test/OD530 in the absence of compound)×100)

[2] = system: keratinocytes from the A431 line; assay: Antiinflammatory activity: release of E2 prostaglandins by UVB-irradiated keratinocytes (ELISA); assay type: cell-based; details: A431 keratinocytes, 30 μM, UV B 30 mJ/cm2, untreated irradiated control = 100%
Description: Study of the antiinflammatory activity of the hydroxytyrosol dihydrosinapate of the invention of formula (IIa), by measurement of the inhibition of release of E2 prostaglandins by keratinocytes under the effect of UVB.
The keratinocytes from the A431 line are cultured in an appropriate medium at 37° C. for 72 hours under 5% CO2. The culture medium is then withdrawn and replaced with the medium containing the products under test, and also the positive and negative controls. The cells are subsequently irradiated with UV B at 30 mJ/cm2. The cells are incubated for an extra 24 hours at 37° C. under 5% CO2. The cell supernatants are subsequently recovered, and the E2 prostaglandins (PGE2) released are quantified by an ELISA assay.
An amount of 100 μL of each sample, control or PGE2 standard is transferred to the wells of a 96-well plate, which are coated with antibodies directed against rat immunoglobulin G (IgG). Then an amount of 25 μL of PGE2-peroxidase conjugate is added to each well, followed by an amount of 25 μL of anti-PGE2 monoclonal antibody. The plate is incubated at 4° C. overnight. The wells are then rinsed and an amount of 100 μL of peroxidase substrate is added. After 15 minutes of incubation at ambient temperature, the optical density is read off at 450 nm. The amount of prostaglandin E2 released after irradiation is deduced from a commercial PGE2 standard range from 0 to 400 pg/mL of PGE2.
The negative control, represented by the cells which were not treated with samples and which underwent irradiation by UV B, gave rise to 100% release of PGE2. The positive experimental control is aspirin, which at 0.03% gave rise to 5%+/−2% release of PGE2.

melanocytes = assay: Cytotoxicity, MTT cell viability on melanocytes; assay type: cell-based; details: for Percentage cell viability, Mean: MTT
Description: Study of cell viability following application of the hydroxytyrosol dihydrosinapate of the invention of formula (IIa) to keratinocytes or melanocytes.
The cells (keratinocytes or melanocytes) were cultured in a 96-well plate at 37° C. under 5% CO2 in an appropriate medium until confluence. The medium was withdrawn and then an amount of 200 μL of a 0.5 mg/mL MTT solution was added. The plates were then incubated at 37° C. for 3 hours, after which the MTT solution was withdrawn from each well and replaced with DMSO. The plates were agitated for 15 minutes, and the optical density was measured at 550 nm.
The negative cytotoxicity control is PBS. The positive cytotoxicity control is 0.25% SDS. 0.1% DMSO was used as control.

With `COc1cc(CCC(=O)OCCc2ccc(O)c(O)c2)cc(OC)c1O` [Hydroxytyrosol dihydrosinapate (IIa), hydroxytyrosol dihydrosinapate] as the molecule, how does the “% inhibition of the DPPH radical” value ([1]; 1 μM) read?
Its value is 10.7 +/− 0.59%.

What about the “% inhibition of the DPPH radical” value ([1]; 5 μM) of the same molecule?
Its value is 59.68 +/− 0.89%.

And the “% inhibition of the DPPH radical” value ([1]; 10 μM)?
Its value is 82.01 +/− 1.05%.

And the “% inhibition of the DPPH radical” value ([1]; 30 μM)?
The value was 86.68 +/− 0.44%.

What about the “% inhibition of the DPPH radical” value ([1]; 50 μM) of the same molecule?
The value was 88.78 +/− 0.49%.

And the “% inhibition of the DPPH radical” value ([1]; 100 μM)?
Its value is 88.28 +/− 0.56%.

And the “% inhibition of the DPPH radical” value ([1]; 1000 μM)?
Its value is 89.14 +/− 0.40%.

What about the “% release of PGE2 after irradiation” value [2] of the same molecule?
The value was 22%.

What about the “Percentage cell viability, Mean” value (melanocytes; 1 μM) of the same molecule?
The value was 109.67%.

And the “Percentage cell viability, Mean” value (melanocytes; 10 μM)?
The value was 107.53%.

What about the “Percentage cell viability, Mean” value (melanocytes; 100 μM) of the same molecule?
The value was 111.30%.

And the “cytotoxicity (in words)” value (melanocytes; 10^−6, 10^−5 and 10^−4 M, tolerated threshold 75% viability)?
The value was “not cytotoxic”.
